Data on 10 molecules can be found in PMC6028563, “Probing Substituents in the 1- and 3-Position: Tetrahydropyrazino-Annelated Water-Soluble Xanthine Derivatives as Multi-Target Drugs With Potent Adenosine Receptor Antagonistic Activity” (Frontiers in Chemistry, 2018).

Where “and” joins values, the source holds several entries; their conditions need not be identical. Identical values can stand only once. Like-named read-outs stand apart in the source and are kept apart here.

For one assay, the target named is T1, recombinant human MAO-A (Homo sapiens, UniProt P21397).
T1 construct: purchased Sigma-Aldrich M7316; host or cells: baculovirus-infected insect cells
T1 sequence (P21397 1-527): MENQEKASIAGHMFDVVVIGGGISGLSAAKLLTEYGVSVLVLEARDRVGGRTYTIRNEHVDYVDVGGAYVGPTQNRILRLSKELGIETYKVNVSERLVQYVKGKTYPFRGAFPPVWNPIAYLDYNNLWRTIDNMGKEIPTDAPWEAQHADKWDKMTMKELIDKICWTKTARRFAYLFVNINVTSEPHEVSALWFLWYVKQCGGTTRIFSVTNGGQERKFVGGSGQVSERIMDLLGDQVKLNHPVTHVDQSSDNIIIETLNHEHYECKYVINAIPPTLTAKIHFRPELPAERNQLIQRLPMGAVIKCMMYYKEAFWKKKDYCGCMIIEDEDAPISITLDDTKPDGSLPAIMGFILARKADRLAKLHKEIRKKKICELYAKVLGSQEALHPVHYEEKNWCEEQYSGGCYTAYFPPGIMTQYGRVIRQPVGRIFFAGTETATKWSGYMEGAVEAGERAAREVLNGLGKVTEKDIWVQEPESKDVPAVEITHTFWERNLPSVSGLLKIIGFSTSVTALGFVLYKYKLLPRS
In words: Monoamine oxidase assay (Amplex Red), MAO-A. It is filed as biochemical. The gist of the method: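 Recombinant human MAO-A and MAO-B, expressed in baculovirus-infected insect cells, were assayed by Amplex Red fluorometric detection. Rat MAO-B inhibition used mitochondria-enriched fractions from male Sprague Dawley rat liver.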

The target in the next assay is T2, human A1 AR (Homo sapiens, UniProt P30542).
T2 construct: expressed in transfected cells; host or cells: CHO cells
T2 sequence (P30542 1-326): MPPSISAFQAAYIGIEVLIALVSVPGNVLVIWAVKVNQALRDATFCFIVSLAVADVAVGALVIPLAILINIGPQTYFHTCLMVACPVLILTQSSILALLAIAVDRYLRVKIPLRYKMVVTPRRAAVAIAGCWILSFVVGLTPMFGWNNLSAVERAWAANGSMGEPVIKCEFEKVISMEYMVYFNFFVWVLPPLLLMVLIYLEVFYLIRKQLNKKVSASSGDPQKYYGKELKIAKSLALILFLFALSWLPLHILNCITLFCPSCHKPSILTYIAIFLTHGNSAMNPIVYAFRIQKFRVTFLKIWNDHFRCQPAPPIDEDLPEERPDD
Particulars: cited from earlier work.

The target in a further assay is T3, human A3 AR (Homo sapiens, UniProt P0DMS8).
T3 construct: expressed in transfected cells; host or cells: CHO cells
T3 sequence (P0DMS8 1-318): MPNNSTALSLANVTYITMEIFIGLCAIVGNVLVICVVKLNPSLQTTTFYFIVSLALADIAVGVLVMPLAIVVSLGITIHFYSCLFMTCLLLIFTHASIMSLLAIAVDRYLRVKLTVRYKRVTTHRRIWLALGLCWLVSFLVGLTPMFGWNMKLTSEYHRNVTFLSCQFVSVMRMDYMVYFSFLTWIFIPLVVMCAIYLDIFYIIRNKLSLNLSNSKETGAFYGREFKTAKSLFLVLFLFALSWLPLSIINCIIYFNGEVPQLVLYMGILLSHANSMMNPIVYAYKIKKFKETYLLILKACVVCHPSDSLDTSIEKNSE
Particulars: cited from earlier work; for Ki: human (h).

The target of the next assay is T4, human A2B AR (Homo sapiens, UniProt P29275).
T4 construct: expressed in transfected cells; host or cells: CHO cells
T4 sequence (P29275 1-332): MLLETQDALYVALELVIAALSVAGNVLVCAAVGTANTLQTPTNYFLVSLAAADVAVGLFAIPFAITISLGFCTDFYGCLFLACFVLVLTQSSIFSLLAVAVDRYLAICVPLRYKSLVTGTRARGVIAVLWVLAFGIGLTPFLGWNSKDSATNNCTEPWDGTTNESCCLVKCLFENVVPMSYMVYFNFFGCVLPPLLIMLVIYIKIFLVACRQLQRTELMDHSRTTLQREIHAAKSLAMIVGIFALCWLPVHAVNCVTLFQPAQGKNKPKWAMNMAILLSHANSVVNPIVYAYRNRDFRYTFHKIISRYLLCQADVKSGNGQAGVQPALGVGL
Particulars: cited from earlier work.

Assay [1] has as its system haloperidol-induced catalepsy. Details: method as in Wang et al., 2017; Robinson et al., 2015. Particulars: rat; ref Wang et al., 2017; Robinson et al., 2015; cited from earlier work.
The next assay concerns the target T5, human A2A AR (Homo sapiens, UniProt P29274).
T5 construct: expressed in transfected cells; host or cells: CHO cells
Particulars: cited from earlier work; for Ki: human (h), 2007, 2013.

The target in a further assay is T6, recombinant human MAO-B (Homo sapiens, UniProt P27338).
T6 construct: purchased Sigma-Aldrich M7441; host or cells: baculovirus-infected insect cells
T6 sequence (P27338 1-520): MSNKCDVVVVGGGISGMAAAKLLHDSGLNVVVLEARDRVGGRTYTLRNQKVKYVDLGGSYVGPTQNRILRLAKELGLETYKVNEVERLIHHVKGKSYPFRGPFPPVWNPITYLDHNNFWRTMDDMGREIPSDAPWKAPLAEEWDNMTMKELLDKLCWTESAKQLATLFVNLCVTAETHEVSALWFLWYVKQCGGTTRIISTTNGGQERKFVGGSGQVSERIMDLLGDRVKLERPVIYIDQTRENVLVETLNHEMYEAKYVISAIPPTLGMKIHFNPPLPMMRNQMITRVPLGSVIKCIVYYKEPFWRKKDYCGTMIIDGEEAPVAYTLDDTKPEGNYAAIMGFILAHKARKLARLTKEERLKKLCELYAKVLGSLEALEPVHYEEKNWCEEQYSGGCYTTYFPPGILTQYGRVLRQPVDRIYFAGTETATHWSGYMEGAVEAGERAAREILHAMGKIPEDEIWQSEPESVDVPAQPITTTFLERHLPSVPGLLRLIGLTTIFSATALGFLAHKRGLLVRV
Particulars: human (h), 2013, cited from earlier work.

Another assay has as its target T7, rat A2A AR (Rattus norvegicus, UniProt P30543).
T7 construct: A2A ARs of rat brain striatal membrane preparations; from tissue; host or cells: rat brain striatum membranes
Particulars: cited from earlier work.

Another assay relates to rat MAO-B. Also on record: method as in Brunschweiger et al., 2014, 2016. Particulars: rat (r); Figure 3 and introduction; ref Brunschweiger et al., 2014, 2016; cited from earlier work.
Where [2] appears, read: human (h), Figure 3 and introduction, ref Drabczynska et al., 2007, Koch et al., 2013, Brunschweiger et al., 2014, 2016, read-out: A1 (Ki).
[3] abbreviates: Figure 3 and introduction, ref Drabczynska et al., Koch et al., Brunschweiger et al., 2014, 2016.
Where [4] appears, read: Figure 3 and introduction, ref Drabczynska et al., 2007, Koch et al., Brunschweiger et al., 2014, 2016.
Setting [5] is: radioligand, ref Müller et al., 2000.

T5 sequence (P29274 whole entry): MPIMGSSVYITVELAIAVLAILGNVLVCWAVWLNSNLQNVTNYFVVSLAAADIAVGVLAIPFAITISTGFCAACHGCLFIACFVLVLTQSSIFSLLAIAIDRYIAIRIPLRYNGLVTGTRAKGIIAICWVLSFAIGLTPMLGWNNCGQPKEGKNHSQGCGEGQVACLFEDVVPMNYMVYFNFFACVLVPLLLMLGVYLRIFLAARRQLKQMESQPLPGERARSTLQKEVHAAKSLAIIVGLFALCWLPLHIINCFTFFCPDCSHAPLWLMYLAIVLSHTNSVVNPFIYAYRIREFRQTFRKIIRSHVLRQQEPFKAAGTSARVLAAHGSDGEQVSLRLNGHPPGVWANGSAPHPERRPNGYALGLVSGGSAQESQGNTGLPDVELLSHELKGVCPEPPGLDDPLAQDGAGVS
T7 sequence (P30543 whole entry): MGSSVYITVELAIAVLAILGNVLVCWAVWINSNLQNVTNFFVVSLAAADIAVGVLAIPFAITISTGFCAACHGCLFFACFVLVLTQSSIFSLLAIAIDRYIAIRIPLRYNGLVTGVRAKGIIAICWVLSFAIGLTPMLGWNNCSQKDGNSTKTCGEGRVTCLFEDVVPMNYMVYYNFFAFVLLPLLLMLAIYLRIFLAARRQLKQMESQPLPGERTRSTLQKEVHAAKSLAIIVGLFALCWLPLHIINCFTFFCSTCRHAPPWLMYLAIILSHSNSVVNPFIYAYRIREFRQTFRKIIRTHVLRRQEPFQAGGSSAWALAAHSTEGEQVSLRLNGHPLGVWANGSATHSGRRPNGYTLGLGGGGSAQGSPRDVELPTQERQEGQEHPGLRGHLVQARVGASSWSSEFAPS

The IC50 is the concentration needed to halve the response being measured. Broadly, the Ki is the dissociation constant of the complex between target and ligand, obtained from inhibition or displacement. Take `Cn1c(=O)c2c(nc(C=Cc3cccc(Cl)c3)n2C)n(C)c1=O` [CSC, 8-m-Chlorostyrylcaffeine]: the inhibition at 10 µM at recombinant human MAO-A (at 10,000 nM, read-out: % inhibition at indicated concentration, Human MAO-A) turned out to be 23%. Also, the IC50 on recombinant human MAO-A (n = 3, read-out: IC50 ± SEM, Human MAO-A) was more than 10000 nM. Moreover, the “% inhibition of radioligand binding at indicated concentration, A1 vs. [^3H]CCPA” value at human A1 AR (at 10,000 nM, ref Müller and Jacobson (2011), Brunschweiger et al. (2014)) is on record as 14%. For the same molecule, the Ki is more than 10000 nM at human A1 AR (read-out: Ki, A1 vs. [^3H]CCPA, standard antagonists, ref Müller and Jacobson (2011), Brunschweiger et al. (2014)); more than 10000 nM on human A3 AR (standard antagonists, ref Müller and Jacobson (2011), Brunschweiger et al. (2014), read-out: Ki, A3 vs. [^3H]PSB-11).
Turning to `O=C(CCCc1ccccc1)Nc1nc2ccccc2c(=O)s1` [Compound 6, N-(4-oxo-4H-3,1-benzothiazin-2-yl)-4-phenylbutanamide], the Ki is more than 1000 nM at human A2B AR (human (h), Figure 2, ref Chen et al., 2002, Stössel et al., 2013) and more than 1000 nM on human A3 AR (Figure 2, ref Chen et al., 2002, Stössel et al., 2013, Mihara et al., 2007, read-out: A3 (Ki)).
Regarding `Cc1ccc(-c2cc(-c3cccc(C(=O)N4CCCCC4)c3)nc(N)n2)o1` [Compound 8], the “effect in haloperidol-induced catalepsy model” value in assay [1] was “in vivo efficacy”.
As for `COc1ccccc1CN1CCCn2c1nc1c2c(=O)n(C)c(=O)n1C` [Compound 9b], the values for the Ki at human A1 AR (setting [2]) and at human A2A AR (setting [3]) were 605 nM and 417 nM, respectively. For the same molecule, the IC50 at recombinant human MAO-B (setting [4]) was 1800 nM.
As for `Cn1c(=O)c2c(nc3n2CCN(Cc2cc(F)c(Cl)cc2Cl)C3)n(C)c1=O` [Compound 10a, 8-(2,4-dichloro-5-fluorobenzyl)-1,3-dimethyl-6,7,8,9-tetrahydropyrazino[2,1-f]purine-2,4(1H,3H)-dione], the Ki is 217 nM at human A1 AR (setting [2]) and 268 nM at human A2A AR (setting [3]). Besides, the half-maximal inhibitory concentration (IC50) at recombinant human MAO-B (setting [4]) is 508 nM.
Consider `Cn1c(=O)c2c(nc3n2CCN(Cc2ccc(Cl)c(Cl)c2)C3)n(C)c1=O` [Compound 10b, 8-(3,4-Dichlorobenzyl)-1,3-dimethyl-6,7,8,9-tetrahydropyrazino[2,1-f]purine-2,4(1H,3H)-dione], for which the Ki at rat A2A AR (rat (r), Figure 3 and introduction, ref Brunschweiger et al., 2014, 2016) was 322 nM. For the same molecule, the IC50 with rat MAO-B was 260 nM.
As to `Cn1c(=O)c2c(nc(-c3ccc(C(=O)Nc4ccccc4)cc3)n2C)n(C)c1=O` [PX-D-P6], the Ki at human A2A AR (Figure 2 and introduction, ref Chen et al., 2002, Wang et al., 2017, Stössel et al., Mihara et al.) is 330 nM. Also, the concentration for half-maximal inhibition (IC50) on recombinant human MAO-B (Figure 2 and introduction, ref Chen et al., 2002, Pretorius et al., 2008, Wang et al., 2017, Stössel et al.) was 260 nM and 290 nM. In assay [1], the “effect in haloperidol-induced catalepsy model” value was “anti-cataleptic effects”.
For orientation: Kd means the equilibrium constant for the complex coming apart. Regarding `C#CCn1c(=O)c2c(nc(C=Cc3cccc(OC)c3)n2C)n(CCCO)c1=O` [[^3H]MSX-2, [^3H]3-(3-hydroxypropyl)-7-methyl-8-(m-methoxystyryl)-1-propargylxanthine], the figures for the Kd on human A2A AR (setting [5]) and on rat A2A AR (setting [5]) were 7.3 nM and 8 nM, respectively.
On to “[^3H]8-(4-[4-(4-chlorophenyl)piperazine-1-sulfonyl]phenyl)-1-propyl-2,3,6,7-tetrahydro-1H-purine-2,6-Dione [[^3H]PSB-603]”, for which, on human A2B AR (radioligand, ref Borrmann et al., 2009), the Kd was 0.41 nM.
Consider “[^3H](R)-8-ethyl-4-methyl-2-(phenyl)1,4,7,8-tetrahydro-5H-imidazo[2,1-i]purin-5-one [[^3H]PSB-11]”, for which, at human A3 AR (radioligand, ref Müller et al., 2002), the dissociation constant (Kd) was 4.9 nM.
